Data: patent US9561231B2 (AbbVie Inc., priority 2012, dated 2017)
Like-named read-outs stand apart in the source and are kept apart here. Marks after values point to notes of the source that are not given here. Each block holds one compound with its values, some of them ahead of it.

What was measured:
[1] = test system: breast cancer cell line MX-1; assay: MX-1 cell line proliferation assay (3-day); type: cell-based; settings: Homo sapiens, MX1, MX-1 cells, Cell Titer Glo, read-out: Cellular proliferation: EC50
Outline: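 EC50 derived by sigmoidal fitting of Cell Titer Glo signal relative to DMSO controls. Compound, 3 μM down to 0.0001 μM final in 3-fold steps, was added to adhered MX-1 cells (5000/well, RPMI + 10% FBS) for a 3-day incubation at 37° C.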

[2] = biological target: T1, second (BD2: amino acids E352-E168) bromodomain of BRD4 (Homo sapiens, UniProt O60885); assay: TR-FRET bromodomain binding assay, BRD4 BD2; settings: Ki calculated from IC50, probe Kd and probe concentration, read-out: TR-FRET Binding Ki: BRD4 (BDII_E352-M457)
T1 construct: protocol
Outline: (§1)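 His-tagged BRD4 bromodomain competed against an Alexa647-labeled BET-inhibitor probe by TR-FRET in 20 mM sodium phosphate pH 6.0, 50 mM NaCl, 1 mM EDTA, 0.01% Triton X-100, 1 mM DTT.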

[3] = test system: OPM-2 human multiple myeloma cancer xenograft; assay: Xenograft tumor growth inhibition assay: OPM-2; type: in vivo, SCID-beige female mice
[4] = test system: MV4-11 human AML xenograft; assay: Xenograft tumor growth inhibition assay: MV4-11; type: in vivo, SCID-beige female mice; settings: QDx14, tumor volumes study day 31
[5] = biological target: T2, first (BD1: amino acids K57-E168) bromodomain of BRD4 (Homo sapiens, UniProt O60885); assay: TR-FRET bromodomain binding assay, BRD4 BD1; settings: Ki calculated from IC50, probe Kd and probe concentration, read-out: TR-FRET Binding Ki: BRD4 (BDI_K57-E168)
T2 construct: His-tagged first (BD1: amino acids K57-E168)
Outline: as §1

[6] = test system: LPS induced IL-6 production; assay: LPS (lipopolysaccharide) induced IL-6 production mouse assay; settings: 1 h before LPS 2.5 mg/kg i.p., serum IL-6 2 h after LPS, p<0.05
[7] = test system: MX-1 human breast cancer xenograft; assay: Xenograft tumor growth inhibition assay: MX-1
[8] = TR-FRET assay protocol (A-G, compound concentration range)
[9] = 30 mg/kg/day PO, QDx14, endpoint 1000 mm^3
[10] = 3 mg/kg/day PO, QDx21, endpoint 1000 mm^3
[11] = 1 mg/kg/day PO, QDx21, endpoint 1000 mm^3
[12] = 3 mg/kg/day PO, QDx21, tumor volumes study day 27
[13] = TR-FRET assay protocol (D, E or G) per compound

Compound: CCOc1cc(=O)n(C)cc1-c1cc(NS(=O)(=O)CC)ccc1Oc1ccc(F)cc1F [Example 285, N-[4-(2,4-difluorophenoxy)-3-(4-ethoxy-1-methyl-6-oxo-1,6-dihydropyridin-3-yl)phenyl]ethanesulfonamide]
- Inhibition of LPS induced IL-6 production, % inhibition ([6]; 3 mg/kg oral): 84.0 @ 3 mg/kg %
- % TGD (tumor growth delay) [7, 10]: 140^d** %
- % TGI (tumor growth inhibition) [7, 12]: 84^d*** %

Compound: CCS(=O)(=O)Nc1ccc(Oc2ccc(F)cc2F)c(-c2cn(C)c(=O)cc2OCC(F)(F)F)c1 [Example 293, N-{4-(2,4-difluorophenoxy)-3-[1-methyl-6-oxo-4-(2,2,2-trifluoroethoxy)-1,6-dihydropyridin-3-yl]phenyl}ethanesulfonamide]
- EC50 ([1]; 72 h incubation): 0.115 µM
- Ki [2, 8]: 0.00599 µM
- Ki [5, 8]: 0.0371 µM
- Inhibition of LPS induced IL-6 production, % inhibition ([6]; 3 mg/kg oral): 71.0 @ 3 mg/kg %
- % TGD (tumor growth delay) [7, 11]: 11%
- % TGI (tumor growth inhibition) ([7]; 1 mg/kg/day PO, QDx21, tumor volumes study day 27): 6%
- % TGD (tumor growth delay) [7, 10]: 42%
- % TGI (tumor growth inhibition) [7, 12]: 56* %

Compound: CCOc1cc(=O)n(C)cc1-c1cc(S(=O)(=O)CC)ccc1OCC1CC1(F)F (stereo not drawn) [Example 368, 5-{2-[(2,2-difluorocyclopropyl)methoxy]-5-(ethylsulfonyl)phenyl}-4-ethoxy-1-methylpyridin-2(1H)-one]
- EC50 ([1]; 72 h incubation): 0.0962 µM
- Ki [2, 8]: 0.0286 µM
- Ki [5, 8]: 0.0196 µM
- Inhibition of LPS induced IL-6 production, % inhibition ([6]; 3 mg/kg oral): 72.4 @ 3 mg/kg %

Compound: CCOc1cc(=O)n(C)cc1-c1cc(S(=O)(=O)CC)ccc1Oc1ccc(F)cc1F [Example 375, 5-[2-(2,4-difluorophenoxy)-5-(ethylsulfonyl)phenyl]-4-ethoxy-1-methylpyridin-2(1H)-one]
- EC50 ([1]; 72 hours with compound): 0.0402 µM
- Ki [2, 13]: 0.00322 µM
- Ki [5, 13]: 0.0129 µM
- Inhibition of LPS induced IL-6 production, % inhibition ([6]; 3 mg/kg oral): 84.4 @ 3 mg/kg %

Compound: CCOc1cc(=O)n(C)cc1-c1cc(NS(=O)(=O)CC)ccc1Oc1ccc(OC(F)(F)F)cc1 [Example 387, N-{3-(4-ethoxy-1-methyl-6-oxo-1,6-dihydropyridin-3-yl)-4-[4-(trifluoromethoxy)phenoxy]phenyl}ethanesulfonamide]
- EC50 ([1]; 72 hours with compound): 0.0618 µM
- Ki [2, 13]: 0.00787 µM
- Ki [5, 13]: 0.0691 µM
- Inhibition of LPS induced IL-6 production, % inhibition ([6]; 3 mg/kg oral): 54.3 @ 3 mg/kg %

Compound: CCOc1cc(=O)n(C)cc1-c1cc(NS(=O)(=O)CC)ccc1Oc1ccc(Cl)cc1 [Example 400, N-[4-(4-chlorophenoxy)-3-(4-ethoxy-1-methyl-6-oxo-1,6-dihydropyridin-3-yl)phenyl]ethanesulfonamide]
- EC50 ([1]; 72 hours with compound): 0.0181 µM
- Ki [2, 13]: 0.00181 µM
- Ki [5, 13]: 0.00721 µM
- Inhibition of LPS induced IL-6 production, % inhibition ([6]; 3 mg/kg oral): 66.4 @ 3 mg/kg %

Now from value to compound, other results behind:

- EC50 ([1]; 72 h incubation): 0.285 µM
- Ki [2, 8]: 0.107 µM
- Ki [5, 8]: 0.0282 µM
Compound: Cn1cc(-c2cc(NS(C)(=O)=O)ccc2Oc2ccc(F)cc2F)ccc1=O [Example 240, N-[4-(2,4-difluorophenoxy)-3-(1-methyl-6-oxo-1,6-dihydropyridin-3-yl)phenyl]methanesulfonamide]
- % TGI (tumor growth inhibition) ([3]; 30 mg/kg/day PO, QDx14): 36** %
- % TGD (tumor growth delay) [3, 9]: 113** %
- % TGI (tumor growth inhibition) ([4]; 3 mg/kg/day PO): 0%
- % TGI (tumor growth inhibition) ([4]; 10 mg/kg/day PO): 23%
- % TGI (tumor growth inhibition) ([4]; 30 mg/kg/day PO): 65^b** %
- Inhibition of LPS induced IL-6 production, % inhibition ([6]; 30 mg/kg oral): 72.6 @ 30 mg/kg %
- % TGD (tumor growth delay) ([7]; 3 mg/kg/day PO, QDx14, endpoint 1000 mm^3): 20%
- % TGI (tumor growth inhibition) ([7]; 3 mg/kg/day PO, QDx14, tumor volumes study day 27): 40* %
- % TGD (tumor growth delay) ([7]; 10 mg/kg/day PO, QDx14, endpoint 1000 mm^3): 35** %
- % TGI (tumor growth inhibition) ([7]; 10 mg/kg/day PO, QDx14, tumor volumes study day 27): 55*** %
- % TGD (tumor growth delay) [7, 9]: 51*** %
- % TGI (tumor growth inhibition) ([7]; 30 mg/kg/day PO, QDx14, tumor volumes study day 27): 61*** %

- EC50 ([1]; 72 h incubation): 0.138 µM
- Ki [2, 8]: 0.0109 µM
- Ki [5, 8]: 0.0256 µM
Compound: COc1cc(=O)n(C)cc1-c1cc(NS(C)(=O)=O)ccc1Oc1ccc(F)cc1F [Example 270, N-[4-(2,4-difluorophenoxy)-3-(4-methoxy-1-methyl-6-oxo-1,6-dihydropyridin-3-yl)phenyl]methanesulfonamide]
- % TGI (tumor growth inhibition) ([3]; 3 mg/kg/day PO, QDx21): 42* %
- % TGD (tumor growth delay) [3, 10]: 17%
- % TGI (tumor growth inhibition) ([3]; 10 mg/kg/day PO, QDx21): 60%
- % TGD (tumor growth delay) ([3]; 10 mg/kg/day PO, QDx21, endpoint 1000 mm^3): 59** %
- Inhibition of LPS induced IL-6 production, % inhibition ([6]; 3 mg/kg oral): 68.8 @ 3 mg/kg %

- EC50 ([1]; 72 h incubation): 0.0473 µM
- Ki [2, 8]: 0.00155 µM
- Ki [5, 8]: 0.00976 µM
Compound: CCS(=O)(=O)Nc1ccc(Oc2ccc(F)cc2F)c(-c2cn(C)c(=O)cc2OC)c1 [Example 271, N-[4-(2,4-difluorophenoxy)-3-(4-methoxy-1-methyl-6-oxo-1,6-dihydropyridin-3-yl)phenyl]ethanesulfonamide]
- % TGI (tumor growth inhibition) ([3]; 1 mg/kg/day PO, QDx21): 66* %
- % TGD (tumor growth delay) [3, 11]: 51*** %
- % TGI (tumor growth inhibition) ([3]; 3 mg/kg/day PO, QDx21): 73* %
- % TGD (tumor growth delay) [3, 10]: 93*** %
- Inhibition of LPS induced IL-6 production, % inhibition ([6]; 3 mg/kg oral): 76.9 @ 3 mg/kg %

- EC50 ([1]; 72 h incubation): 0.0281 µM
- Ki [2, 8]: 0.00242 µM
- Ki [5, 8]: 0.00529 µM
Compound: CCOc1cc(=O)n(C)cc1-c1cc(S(=O)(=O)C(C)C)ccc1Oc1ccc(F)cc1F [Example 369, 5-[2-(2,4-difluorophenoxy)-5-(propan-2-ylsulfonyl)phenyl]-4-ethoxy-1-methylpyridin-2(1H)-one]
- Inhibition of LPS induced IL-6 production, % inhibition ([6]; 3 mg/kg oral): 38.0 @ 3 mg/kg %

- EC50 ([1]; 72 h incubation): 0.0409 µM
- Ki [2, 8]: 0.00229 µM
- Ki [5, 8]: 0.00873 µM
Compound: CCOc1cc(=O)n(C)cc1-c1cc(S(=O)(=O)C2CC2)ccc1Oc1ccc(F)cc1F [Example 371, 5-[5-(cyclopropylsulfonyl)-2-(2,4-difluorophenoxy)phenyl]-4-ethoxy-1-methylpyridin-2(1H)-one]
- Inhibition of LPS induced IL-6 production, % inhibition ([6]; 3 mg/kg oral): 57.6 @ 3 mg/kg %
